# Data reported in patent US11912701B2, “Protein kinase inhibitors for promoting liver regeneration or reducing or preventing hepatocyte death” (HEPAREGENIX GMBH, priority 2018, dated 2024).
# Assays:
# Assay type in all cases: biochemical
# JNK1 = JNK1 (Homo sapiens, UniProt P45983); experiment: 33PanQinase enzyme assay, JNK1; parameters: purchased ProQinase GmbH, Freiburg, Germany (33PanQinase Assay Service); settings: ratio IC50(JNK1)/IC50(MKK4)
# Method in brief: (§1)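 Radiometric 33PanQinase format: kinase with substrate, ATP and compound (added in 10% DMSO stock) incubated 60 min at 30° C, stopped with 2% H3PO4, ^33Pi incorporation counted by scintillation. Single-concentration data given as % residual activity; IC50 by least-squares fit, with selectivity as IC50(off-target)/IC50(MKK4).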
# MKK7 = biological target: T1, MKK7 (Homo sapiens, UniProt O14733); experiment: 33PanQinase enzyme assay, MKK7; parameters: purchased ProQinase GmbH, Freiburg, Germany (33PanQinase Assay Service); settings: ratio IC50(MKK7)/IC50(MKK4)
# T1 sequence (O14733 1-419): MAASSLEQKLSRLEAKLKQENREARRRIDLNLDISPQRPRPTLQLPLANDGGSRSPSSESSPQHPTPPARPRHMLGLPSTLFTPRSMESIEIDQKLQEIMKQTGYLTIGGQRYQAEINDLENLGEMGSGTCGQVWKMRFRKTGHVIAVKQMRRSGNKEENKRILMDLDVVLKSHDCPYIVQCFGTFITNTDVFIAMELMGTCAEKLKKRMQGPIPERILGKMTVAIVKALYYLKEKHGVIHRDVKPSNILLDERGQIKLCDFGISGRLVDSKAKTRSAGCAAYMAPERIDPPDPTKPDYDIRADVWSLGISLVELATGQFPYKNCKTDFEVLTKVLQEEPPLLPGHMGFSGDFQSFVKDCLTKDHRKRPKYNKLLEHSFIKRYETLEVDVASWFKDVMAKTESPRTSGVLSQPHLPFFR
# Method in brief: as §1
# MKK4 = biological target: T2, MKK4 (Homo sapiens, UniProt P45985); experiment: 33PanQinase enzyme assay, MKK4; settings: assay 'IC50'; for IC50: read-out: Potency MKK4 (IC50)
# T2 construct: purchased ProQinase GmbH, Freiburg, Germany (33PanQinase Assay Service)
# T2 sequence (P45985 1-399): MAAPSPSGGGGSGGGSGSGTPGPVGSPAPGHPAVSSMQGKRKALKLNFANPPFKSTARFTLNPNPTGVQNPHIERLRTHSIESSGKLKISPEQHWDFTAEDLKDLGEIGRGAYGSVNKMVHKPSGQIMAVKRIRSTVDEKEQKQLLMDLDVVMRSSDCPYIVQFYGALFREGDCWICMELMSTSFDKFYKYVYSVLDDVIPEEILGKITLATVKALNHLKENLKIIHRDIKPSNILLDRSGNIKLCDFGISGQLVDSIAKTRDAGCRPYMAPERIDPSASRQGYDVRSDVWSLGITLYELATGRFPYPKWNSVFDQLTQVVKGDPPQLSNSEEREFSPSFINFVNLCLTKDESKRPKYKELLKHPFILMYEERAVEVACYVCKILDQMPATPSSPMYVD
# Method in brief: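 Radiometric 33PanQinase assay: kinase, substrate, ATP and compound in standard buffer, 60 min at 30 °C; 33Pi incorporation read by scintillation counting.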
# BRaf = biological target: T3, BRaf (Homo sapiens, UniProt P15056); experiment: 33PanQinase enzyme assay, BRaf; settings: ratio IC50(BRaf)/IC50(MKK4)
# T3 construct: purchased ProQinase GmbH, Freiburg, Germany (33PanQinase Assay Service)
# Method in brief: as §1
# Chain of JNK1 (P45983 whole entry): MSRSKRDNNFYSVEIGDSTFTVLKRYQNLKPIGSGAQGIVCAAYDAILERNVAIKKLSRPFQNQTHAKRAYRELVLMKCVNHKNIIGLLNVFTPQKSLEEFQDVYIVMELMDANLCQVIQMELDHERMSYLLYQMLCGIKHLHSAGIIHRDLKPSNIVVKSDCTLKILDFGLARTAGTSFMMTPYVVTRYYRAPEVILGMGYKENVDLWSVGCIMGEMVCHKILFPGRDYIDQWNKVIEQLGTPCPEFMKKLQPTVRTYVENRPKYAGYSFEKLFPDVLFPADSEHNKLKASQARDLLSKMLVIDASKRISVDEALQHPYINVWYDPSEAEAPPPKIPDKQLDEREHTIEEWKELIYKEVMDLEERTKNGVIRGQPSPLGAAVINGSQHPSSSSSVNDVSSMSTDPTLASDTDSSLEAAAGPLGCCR
# T3 sequence (P15056 whole entry, species assumed): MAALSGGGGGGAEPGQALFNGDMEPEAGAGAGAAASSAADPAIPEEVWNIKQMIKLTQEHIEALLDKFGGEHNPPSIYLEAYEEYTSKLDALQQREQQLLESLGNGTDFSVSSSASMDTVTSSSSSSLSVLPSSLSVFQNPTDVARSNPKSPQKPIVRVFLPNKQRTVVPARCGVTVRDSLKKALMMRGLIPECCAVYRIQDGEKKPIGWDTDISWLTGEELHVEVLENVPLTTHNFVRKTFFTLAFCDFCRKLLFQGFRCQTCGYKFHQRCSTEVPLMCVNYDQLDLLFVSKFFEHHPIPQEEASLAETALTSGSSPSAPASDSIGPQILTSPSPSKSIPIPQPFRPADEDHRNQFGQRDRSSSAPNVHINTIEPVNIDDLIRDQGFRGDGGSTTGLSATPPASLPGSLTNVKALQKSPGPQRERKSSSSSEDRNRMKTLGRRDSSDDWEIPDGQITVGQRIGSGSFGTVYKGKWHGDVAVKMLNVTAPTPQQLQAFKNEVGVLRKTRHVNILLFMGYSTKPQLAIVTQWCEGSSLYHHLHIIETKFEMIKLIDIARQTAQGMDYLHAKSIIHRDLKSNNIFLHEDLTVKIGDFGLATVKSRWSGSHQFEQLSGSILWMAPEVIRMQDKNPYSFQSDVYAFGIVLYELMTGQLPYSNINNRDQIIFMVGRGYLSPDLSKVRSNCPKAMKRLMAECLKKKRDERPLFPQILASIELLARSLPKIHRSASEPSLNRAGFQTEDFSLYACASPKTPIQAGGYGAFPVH
SMILES,"Selectivity JNK1, IC50(off-target)/IC50(MKK4) (JNK1)","Selectivity IVIKK7, IC50(off-target)/IC50(MKK4) (MKK7)",IC50 (MKK4) [nM],"Selectivity Braf, IC50(off-target)/IC50(MKK4) (BRaf)",Potency MKK4 (IC50) (MKK4)
"CCCS(=O)(=O)Nc1ccc(F)c(C(=O)c2c[nH]c3ncc(-c4ncccn4)cc23)c1F [Example 90, N-(2,4-difluoro-3-(5-(pyrimidin-2-yl)-1H-pyrrolo[2,3-b]pyridine-3-carbonyl)phenyl)propane-1-sulfonamide]",◯ (3 ≥ IC50(off-target)/IC50(MKK4)),++ (100 ≥ IC50(off-target)/IC50(MKK4) > 10),1000 to 10000,◯ (3 ≥ IC50(off-target)/IC50(MKK4)),–
"O=C(c1cccc(NS(=O)(=O)Cc2ccccc2)c1F)c1c[nH]c2ncc(-c3cccnc3)cc12 [Example 132, N-(2-fluoro-3-(5-(pyridin-3-yl)-1H-pyrrolo[2,3-b]pyridine-3-carbonyl)phenyl)-1-phenylmethanesulfonamide]",◯ (3 ≥ IC50(off-target)/IC50(MKK4)),+++ (IC50(off-target)/IC50(MKK4) > 100),100 to 1000,++ (100 ≥ IC50(off-target)/IC50(MKK4) > 10),–
"CCCS(=O)(=O)Nc1c(F)ccc(C(=O)c2c[nH]c3ncc(-c4cnc(N5CC[C@H](O)C5)nc4)cc23)c1F [Example 203, (S)-N-(2,6-difluoro-3-(5-(2-(3-hydroxypyrrolidin-1-yl)pyrimidin-5-yl)-1H-pyrrolo[2,3-b]pyridine-3-carbonyl)phenyl)propane-1-sulfonamide]",+++ (IC50(off-target)/IC50(MKK4) > 100),+++ (IC50(off-target)/IC50(MKK4) > 100),< 100,++ (100 ≥ IC50(off-target)/IC50(MKK4) > 10),–
"Cc1ncc(-c2cnc3[nH]cc(C(=O)c4ccc(F)c(NS(=O)(=O)CCC(F)(F)F)c4F)c3c2)cn1 [Example 147, N-(2,6-difluoro-3-(5-(2-methylpyrimidin-5-yl)-1H-pyrrolo[2,3-b]pyridine-3-carbonyl)phenyl)-3,3,3-trifluoropropane-1-sulfonamide]",+++ (IC50(off-target)/IC50(MKK4) > 100),+++ (IC50(off-target)/IC50(MKK4) > 100),< 100,++ (100 ≥ IC50(off-target)/IC50(MKK4) > 10),–
"CCCS(=O)(=O)Nc1c(F)ccc(C(=O)c2c[nH]c3ncc(-c4cnc(Cl)nc4)cc23)c1F [Example 237, N-(3-(5-(2-chloropyrimidin-5-yl)-1H-pyrrolo[2,3-b]pyridine-3-carbonyl)-2,6-difluorophenyl)propane-1-sulfonamide]",+++ (IC50(off-target)/IC50(MKK4) > 100),+++ (IC50(off-target)/IC50(MKK4) > 100),–,+++ (IC50(off-target)/IC50(MKK4) > 100),+++·
"O=C(c1ccc(F)c(NS(=O)(=O)CCC(F)(F)F)c1F)c1c[nH]c2ncc(-c3cnc(C(F)(F)F)nc3)cc12 [Example 142, N-(2,6-difluoro-3-(5-(2-(trifluoromethyl)pyrimidin-5-yl)-1H-pyrrolo[2,3-b]pyridine-3-carbonyl)phenyl)-3,3,3-trifluoro-propane-1-sulfonamide]",++·+,+++ (IC50(off-target)/IC50(MKK4) > 100),< 100,+++ (IC50(off-target)/IC50(MKK4) > 100),–
"CCCS(=O)(=O)Nc1c(F)ccc(C(=O)c2c[nH]c3ncc(-c4cnc(N5CC[C@@H](O)C5)nc4)cc23)c1F [Example 204, (R)-N-(2,6-difluoro-3-(5-(2-(3-hydroxypyrrolidin-1-yl)pyrimidin-5-yl)-1H-pyrrolo[2,3-b]pyridine-3-carbonyl)phenyl)propane-1-sulfonamide]",+++ (IC50(off-target)/IC50(MKK4) > 100),+++ (IC50(off-target)/IC50(MKK4) > 100),100 to 1000,++ (100 ≥ IC50(off-target)/IC50(MKK4) > 10),–
"CCCCS(=O)(=O)Nc1c(F)ccc(C(=O)c2c[nH]c3ncc(-c4ccc(OC)cc4Cl)cc23)c1F [Example 226, N-(3-(5-(2-chloro-4-methoxyphenyl)-1H-pyrrolo[2,3-b]pyridine-3-carbonyl)-2,6-difluorophenyl)butane-1-sulfonamide]",++ (100 ≥ IC50(off-target)/IC50(MKK4) > 10),+++ (IC50(off-target)/IC50(MKK4) > 100),< 100,+++ (IC50(off-target)/IC50(MKK4) > 100),–
"CCCS(=O)(=O)Nc1ccc(F)c(C(=O)c2c[nH]c3ncc(-c4ccccc4C(F)(F)F)cc23)c1F [Example 97, N-(2,4-difluoro-3-(5-(2-(trifluoromethyl)phenyl)-1H-pyrrolo[2,3-b]pyridine-3-carbonyl)phenyl)propane-1-sulfonamide]",+ (10 ≥ IC50(off-target)/IC50(MKK4) > 3),+++ (IC50(off-target)/IC50(MKK4) > 100),100 to 1000,◯ (3 ≥ IC50(off-target)/IC50(MKK4)),–
"CCCS(=O)(=O)Nc1ccc(F)c(C(=O)c2c[nH]c3ncc(-c4ccc(P(C)(C)=O)cc4)cc23)c1F [Example 93, N-(3-(5-(4-(dimethylphosphoryl)phenyl)-1H-pyrrolo[2,3-b]pyridine-3-carbonyl)-2,4-difluorophenyl)propane-1-sulfonamide]",++ (100 ≥ IC50(off-target)/IC50(MKK4) > 10),+++ (IC50(off-target)/IC50(MKK4) > 100),100 to 1000,◯ (3 ≥ IC50(off-target)/IC50(MKK4)),–
"CCCS(=O)(=O)Nc1ccc(F)c(C(=O)c2c[nH]c3ncc(-c4ccc(SCCN)cc4)cc23)c1F [Example 76, N-(3-(5-(4-((2-aminoethyl)thio)phenyl)-1H-pyrrolo[2,3-b]pyridine-3-carbonyl)-2,4-difluorophenyl)propane-1-sulfonamide]",+ (10 ≥ IC50(off-target)/IC50(MKK4) > 3),+++ (IC50(off-target)/IC50(MKK4) > 100),100 to 1000,◯ (3 ≥ IC50(off-target)/IC50(MKK4)),–
"CCCS(=O)(=O)Nc1c(F)ccc(C(=O)c2c[nH]c3ncc(-c4cnc(OCCCN(C)C)nc4)cc23)c1F [Example 200, N-(3-(5-(2-(3-(dimethylamino)propoxy)pyrimidin-5-yl)-1H-pyrrolo[2,3-b]pyridine-3-carbonyl)-2,6-difluorophenyl)propane-1-sulfonamide]",+ (10 ≥ IC50(off-target)/IC50(MKK4) > 3),+++ (IC50(off-target)/IC50(MKK4) > 100),1000 to 10000,+ (10 ≥ IC50(off-target)/IC50(MKK4) > 3),–

# Next, values leading:
"Selectivity JNK1, IC50(off-target)/IC50(MKK4) (JNK1)","Selectivity IVIKK7, IC50(off-target)/IC50(MKK4) (MKK7)",IC50 (MKK4) [nM],"Selectivity Braf, IC50(off-target)/IC50(MKK4) (BRaf)",Potency MKK4 (IC50) (MKK4),SMILES
+ (10 ≥ IC50(off-target)/IC50(MKK4) > 3),+++ (IC50(off-target)/IC50(MKK4) > 100),100 to 1000,◯ (3 ≥ IC50(off-target)/IC50(MKK4)),–,"CCCS(=O)(=O)Nc1ccc(F)c(C(=O)c2c[nH]c3ncc(-c4ccccc4C#N)cc23)c1F [Example 118, N-(3-(5-(2-cyanophenyl)-1H-pyrrolo[2,3-b]pyridine-3-carbonyl)-2,4-difluorophenyl)propane-1-sulfonamide]"
+++ (IC50(off-target)/IC50(MKK4) > 100),+++ (IC50(off-target)/IC50(MKK4) > 100),< 100,+++ (IC50(off-target)/IC50(MKK4) > 100),–,"O=C(c1ccc(F)c(NS(=O)(=O)CCC(F)(F)F)c1F)c1c[nH]c2ncc(-c3ccc(Cl)cc3)cc12 [Example 150, N-(3-(5-(4-chlorophenyl)-1H-pyrrolo[2,3-b]pyridine-3-carbonyl)-2,6-difluorophenyl)-3,3,3-trifluoropropane-1-sulfonamide]"
